# Biological target: T1, Ba/F3 cell EGFR Exon20 ins NPH (Homo sapiens, UniProt P00533, INS773NPH)
# T1 construct: expressed in transfected cells; host or cells: Ba/F3
# Experiment: Ba/F3 cell proliferation suppression, EGFR Exon20 ins NPH
# Format: cell-based
# Details: GI50 class; Ba/F3 cell line with NPH inserted at Exon20 of EGFR; 72 hours
# Outline: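 Cells (3000–5000/well) plated 24 h before compound, 12-point 3-fold dilutions at 0.3 nM to 50 um final; Ba/F3 lines grown with 5 ng/ml IL-3. Viability by CellTiter-Glo luminescence after 72 h, growth ratio vs control, GI50 from curves; triplicate.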
structure (smiles),measurement,value
"C=CC(=O)Nc1cc(Nc2cc(N3OCC[C@@H]3c3cccc(OC)c3)ncn2)c(OC)cc1N1CCC(N2CCC(N(C)C)CC2)CC1 [compound 781, N-(2-(4-(dimethylamino)-[1,4'-bipiperidine]-1'-yl)-4-methoxy-5-((6-((R)-3-(3-methoxyphenyl)isoxazolidine-2-yl)pyrimidine-4-yl)amino)phenyl)acrylamide]",Ba/F3 (NPH) Activity,B (50 nM ≤ GI50 < 500 nM)
"C=CC(=O)Nc1cc(Nc2cc(N3OCC[C@@H]3c3cccc(C#N)c3)ncn2)c(OC)cc1N1CCC(N2CCN(C(C)C)CC2)CC1 [compound 494, N-(5-((6-((R)-3-(3-cyanophenyl)isoxazolidine-2-yl)pyrimidine-4-yl)amino)-2-(4-(4-isopropylpiperazine-1-yl)piperidine-1-yl)-4-methoxyphenyl) acrylamide]",Ba/F3 (NPH) Activity,A (GI50 < 50 nM)
"C=CC(=O)Nc1cc(Nc2cc(N3OCC[C@@H]3c3c(F)ccc(F)c3F)ncn2)c(OC)cc1N1CCN(C)CC1 [compound 629, N-(4-methoxy-2-(4-methylpiperazine-1-yl)-5-((6-((R)-3-(2,3,6-trifluorophenyl)isoxazolidine-2-yl)pyrimidine-4-yl)amino)phenyl)acrylamide]",Ba/F3 (NPH) Activity,B (50 nM ≤ GI50 < 500 nM)
"C=CC(=O)Nc1cc(Nc2cc(N3OCC[C@@H]3c3ccc(Cl)c(Cl)c3)ncn2)c(OC)cc1N1C[C@H]2C[C@@H]1CN2C [compound 674, N-(5-((6-((R)-3-(3,4-dichlorophenyl)isoxazolidine-2-yl)pyrimidine-4-yl)amino)-4-methoxy-2-((1R,4R)-5-methyl-2,5-diazabicyclo[2.2.1]heptane-2-yl)phenyl) acrylamide]",Ba/F3 (NPH) Activity,A (GI50 < 50 nM)
"C=CC(=O)Nc1cc(Nc2cc(N3OCC[C@@H]3c3c(F)ccc(F)c3F)ncn2)c(OC)cc1N1CCC(N2CCO[C@H](C)C2)CC1 [compound 646, N-(4-methoxy-2-(4-((R)-2-methylmorpholino)piperidine-1-yl)-5-((6-((R)-3-(2,3,6-trifluorophenyl)isoxazolidine-2-yl)pyrimidine-4-yl)amino)phenyl)acrylamide]",Ba/F3 (NPH) Activity,A (GI50 < 50 nM)
"C=CC(=O)Nc1cc(Nc2cc(N3OCC[C@@H]3c3ccc(F)cc3F)ncn2)c(OC)cc1N1CCN(CCN(C)C)CC1 [compound 349, N-(5-((6-((R)-3-(2,4-difluorophenyl)isoxazolidine-2-yl)pyrimidine-4-yl)amino)-2-(4-(2-(dimethylamino)ethyl)piperazine-1-yl)-4-methoxyphenyl) acrylamide]",Ba/F3 (NPH) Activity,A (GI50 < 50 nM)
"C=CC(=O)Nc1cc(Nc2cc(N3OCC[C@H]3c3c(F)cccc3F)ncn2)c(OC)cc1N1C[C@@H]2CCN(C)[C@@H]2C1 [compound 899, N-(5-((6-((S)-3-(2,6-difluorophenyl)isoxazolidine-2-yl)pyrimidine-4-yl)amino)-4-methoxy-2-((3aS,6aS)-1-methylhexahydropyrrolo [3,4-b]pyrrole-5(1H)-yl)phenyl) acrylamide]",Ba/F3 (NPH) Activity,C (500 nM ≤ GI50 < 5000 nM)
"C=CC(=O)Nc1cc(Nc2cc(N3OCC[C@@H]3c3ccccc3)ncn2)c(OC)cc1N1CCC(N2C[C@H]3C[C@@H]2CN3CC)CC1 [compound 738, N-(2-(4-((1R,4R)-5-ethyl-2,5-diazabicyclo [2.2.1]heptane-2-yl)piperidine-1-yl)-4-methoxy-5-((6-((R)-3-phenylisoxazolidine-2-yl)pyrimidine-4-yl)amino)phenyl) acrylamide]",Ba/F3 (NPH) Activity,A (GI50 < 50 nM)
"C=CC(=O)Nc1cc(Nc2cc(N3OCC[C@@H]3c3ccc(Cl)c(Cl)c3F)ncn2)c(OC)cc1N1CCC(N2C[C@H]3C[C@@H]2CO3)CC1 [Example 268, N-(2-(4-((1R,4R)-2-oxa-5-azabicyclo[2.2.1]heptane-5-yl)piperidine-1-yl)-5-((6-((R)-3-(3,4-dichloro-2-fluorophenyl)isoxazolidine-2-yl)pyrimidine-4-yl)amino)-4-methoxyphenyl) acrylamide]",Ba/F3 (NPH) Activity,A (GI50 < 50 nM)

# Reference: patent US12157730B2, “Heteroaryl derivative, method for producing same, and pharmaceutical composition comprising same as effective component” (VORONOI INC., priority 2019, dated 2024)
